Test results reported in PubChem BioAssay (NCI).
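GI50: concentration for 50% inhibition of growth. At the TGI there is no net growth.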

Assays:
Assay in all cases: inhibition of tumour cell growth, NCI panel, 384-well format; in the data active means GI50 below about 0.43 µM; inactive means the rest
[1] = test system: 786-0 renal
[2] = test system: A498 renal
[3] = test system: A549 NSCLC
[4] = test system: ACHN renal
[5] = test system: BT-549 breast
[6] = test system: CAKI-1 renal
[7] = test system: CCRF-CEM leukemia
[8] = test system: COLO 205 colon
[9] = test system: DU-145 prostate
[10] = test system: EKVX NSCLC
[11] = test system: HCC-2998 colon
[12] = test system: HCT-15 colon
[13] = test system: HL-60(TB) leukemia
[14] = test system: HOP-62 NSCLC
[15] = test system: HOP-92 NSCLC
[16] = test system: HS 578T breast
[17] = test system: HT29 colon
[18] = test system: IGROV1 ovarian
[19] = test system: KM12 colon
[20] = test system: M14 melanoma
[21] = test system: MCF7 breast
[22] = test system: MDA-MB-231 breast
[23] = test system: MDA-MB-435 melanoma
[24] = test system: MDA-MB-468 breast
[25] = test system: MOLT-4 leukemia
[26] = test system: NCI-H226 lung
[27] = test system: NCI-H23 lung
[28] = test system: NCI-H322M lung
[29] = test system: NCI-H460 NSCLC
[30] = test system: NCI-H522 lung
[31] = test system: NCI/ADR-RES ovarian
[32] = test system: OVCAR-3 ovarian
[33] = test system: OVCAR-4 ovarian
[34] = test system: OVCAR-5 ovarian
[35] = test system: OVCAR-8 ovarian
[36] = test system: PC-3 prostate
[37] = test system: RPMI-8226 leukemia
[38] = test system: RXF 393 renal
[39] = test system: SF-268 CNS
[40] = test system: SF-295 CNS
[41] = test system: SF-539 CNS
[42] = test system: SK-MEL-2 melanoma
[43] = test system: SK-MEL-28 melanoma
[44] = test system: SK-MEL-5 melanoma
[45] = test system: SK-OV-3 ovarian
[46] = test system: SN12C renal
[47] = test system: SNB-19 CNS
[48] = test system: SNB-75 CNS
[49] = test system: SR leukemia
[50] = test system: SW-620 colon
[51] = test system: T-47D breast
[52] = test system: TK-10 renal
[53] = test system: U251 glioblastoma
[54] = test system: UACC-257 melanoma
[55] = test system: UACC-62 melanoma

O=C1c2ccccc2-c2n[nH]c3cccc1c23
81.4 µM: TGI [38]
37.6 µM: TGI [29]
26.6 µM: TGI [44]
57 µM: TGI [39]
97.4 µM: TGI [41]
43.5 µM: TGI [11]
25.2 µM: TGI [7]
46.8 µM: TGI [4]
49.7 µM: TGI [5]
12.5 µM: TGI [24]
41.5 µM: TGI [48]
17 µM: TGI [42]
84.6 µM: TGI [2]
14.9 µM: TGI [6]
69.1 µM: TGI [14]
> 100 µM: TGI [1] | TGI [3] | TGI [9] | TGI [10] | TGI [12] | TGI [13] | TGI [15] | TGI [17] | TGI [19] | TGI [21] | TGI [22] | TGI [23] | TGI [27] | TGI [28] | TGI [31] | TGI [32] | TGI [33] | TGI [34] | TGI [35] | TGI [36] | TGI [40] | TGI [43] | TGI [46] | TGI [47] | TGI [50] | TGI [51] | TGI [52] | TGI [53] | TGI [54] | TGI [55]
14.6 µM: TGI [45]
3.76 µM: TGI [25]
71.2 µM: TGI [16]
inactive: GI50 [1] 19.2 µM | GI50 [2] 3 µM | GI50 [3] 15.8 µM | GI50 [4] 11 µM | GI50 [5] 3.72 µM | GI50 [6] 3.39 µM | GI50 [7] 6 µM | GI50 [8] 10.3 µM | GI50 [9] 14.7 µM | GI50 [10] 4.49 µM | GI50 [11] 3.74 µM | GI50 [12] 4.63 µM | GI50 [13] 10.4 µM | GI50 [14] 14.8 µM | GI50 [15] 20 µM | GI50 [16] 5.63 µM | GI50 [17] 11.4 µM | GI50 [18] 4.82 µM | GI50 [19] 2.78 µM | GI50 [20] 5.93 µM | GI50 [21] 37.4 µM | GI50 [22] 13.9 µM | GI50 [23] 17.4 µM | GI50 [24] 2.72 µM | GI50 [25] 1.74 µM | GI50 [26] 2.26 µM | GI50 [27] 19.8 µM | GI50 [28] 32.4 µM | GI50 [29] 6.56 µM | GI50 [30] 7.22 µM | GI50 [31] 53.9 µM | GI50 [32] 20.2 µM | GI50 [33] 32 µM | GI50 [34] 17.8 µM | GI50 [35] 22.1 µM | GI50 [36] 20.8 µM | GI50 [37] 4.09 µM | GI50 [38] 11.7 µM | GI50 [39] 5.72 µM | GI50 [40] 34.1 µM | GI50 [41] 8.72 µM | GI50 [42] 5.03 µM | GI50 [43] 74.8 µM | GI50 [44] 5.77 µM | GI50 [45] 3.03 µM | GI50 [46] 23.3 µM | GI50 [47] 45.1 µM | GI50 [48] 1.87 µM | GI50 [49] 2.38 µM | GI50 [50] 11.7 µM | GI50 [51] 21.5 µM | GI50 [52] 4.21 µM | GI50 [53] 9.02 µM | GI50 [54] 27.9 µM | GI50 [55] 15.5 µM
58.9 µM: TGI [20]
11.7 µM: TGI [26]
30 µM: TGI [37]
26 µM: TGI [8]
64.6 µM: TGI [18]
6.99 µM: TGI [49]
53.5 µM: TGI [30]
